Reference: patent publication US11576902B2, “Inhibition of COVID-19 virus” (Ankh Life Sciences Limited, priority 2020, dated 2023)

Tests used:
[1] = test system: SARS-CoV-2 isolate USA-WA1/2020; experiment: Virus plaque formation assay; type: cell-based
[2] = test system: SARS-CoV-2 isolate USA-WA1/2020; experiment: RT-PCR assay of viral load (viral RNA copy number in cell supernatant); type: cell-based

Protocol for Vero-E6 cells: Cytotoxicity was measured using Promega™ CytoTox 96™ Nonradioactive Cytotoxicity Assay (cat #G1780, Promega, Madison, Wis., USA).
Cytotoxicity was measured using the Promega™ CytoTox 96™ Nonradioactive Cytotoxicity Assay kit (cat #G1780, Promega, Madison, Wis., USA) in 50 μL reactions and 96-well format (cat #161093, Thermo Fisher Scientific, Waltham, Mass., USA) according to the manufacturer's protocol, except we used 20 μL of 10× Lysis Solution per 100 μL of sample and incubated at 37° C. for 30 minutes to generate the maximum LDH release control. The assay was measured using a BioTeK Synergy™ HT plate reader (model #7091000, BioTek, Winooski, Vt., USA) at an optical density of 490 nm (OD490). Cytotoxicity was measured for ≤60 μM Cmpd. x for all three cell lines (LLC-MK2, Vero E6, and Calu-3). LLC-MK2 cells were assessed for cytotoxicity at 5 days, whereas Vero E6 and Calu-3 cells were assessed for cytotoxicity every 24 hours from 1-5 days.

## COc1ccc2c3c([nH]c2c1)C(CCCC1=NCCc2c1[nH]c1cc(OC)ccc21)=NCC3 [GZ440-6, 1,3-bis(7-methoxy-4,9-dihydro-3H-pyrido[3,4-b]indol-1-yl)propane]
[1]; 2.0 μM, 5.0 μM and 10.0 μM, Vero-E6 cells, 120 h after infection
  inhibition of plaque formation: negligible inhibition
[1]; 20 μM and above, Student's T-Test vs. Camostat/E64d P<0.05
  inhibition of plaque formation: inhibition of plaque formation was significant
Vero-E6 cells
  average cytotoxicity values: not elevated above controls
[2]; 40 μM (P<0.05), FIG. 3C
  viral numbers (RNA copy number): clear reduction in viral numbers
[2]; higher concentrations (20 and 40 μM), 120 hours after infection
  viral load (viral RNA levels): decreased viral load
[2]; lower concentrations (2, 5, 10 μM), 120 hours after infection, listed as compound of the invention
  viral load (viral RNA levels / viral numbers): no consistent reduction of viral numbers
